Several values for one entry are separate records, joined by “and”; a condition that tells them apart may be missing. Equal values may be shown once.
Key:
PfCRT variant D311A = biological target: T1, PfCRT variant D311A (Plasmodium falciparum, UniProt Q9N623, A220S/D311A/I356T/K76T/M74I/N326S/N75E/Q271E/R371I); test: CQ uptake assay, oocytes expressing D311A; format: cell-based
T1 sequence (Q9N623 1-424 M74I/N75E/K76T/A220S/Q271E/D311A/N326S/I356T/R371I): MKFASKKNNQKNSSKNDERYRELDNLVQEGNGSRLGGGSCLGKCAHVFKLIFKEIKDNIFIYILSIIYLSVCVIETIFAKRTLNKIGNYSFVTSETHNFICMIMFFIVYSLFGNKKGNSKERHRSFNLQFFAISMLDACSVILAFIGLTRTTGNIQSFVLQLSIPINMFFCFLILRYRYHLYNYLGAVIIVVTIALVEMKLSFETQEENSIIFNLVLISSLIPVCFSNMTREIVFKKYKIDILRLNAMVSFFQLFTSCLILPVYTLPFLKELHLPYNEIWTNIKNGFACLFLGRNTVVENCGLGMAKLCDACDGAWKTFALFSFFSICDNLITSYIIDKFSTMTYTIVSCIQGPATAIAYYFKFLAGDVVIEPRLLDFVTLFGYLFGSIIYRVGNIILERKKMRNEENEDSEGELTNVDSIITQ
Description: (§1) Site-directed mutagenesis of PfCRT^Dd2 was performed as described using the megaprimer method with overlap extension[21],[54]. The primer pairs used are listed in Supplementary Table 6. Please note that a codon-optimized and oocyte-adapted version of PfCRT^Dd2 was used[22] (Supplementary Fig. 16). The resulting DNA fragment was cloned into the SP64T expression vector and verified by sequencing.
(§2) Oocytes were obtained as described previously. Briefly, adult (>2 years old) female X. laevis frogs (NASCO) were anesthetized in a cooled solution of ethyl 3-amino benzoate methanesulfonate (0.1%, w/v), followed by a surgical removal of parts of the ovary. The ovary lobes were carefully dissected and small pieces of oocytes were incubated in Ca^2+-free ND96 buffer (96 mM NaCl, 2 mM KCl, 1 mM MgCl2 buffered with 5 mM HEPES/NaOH, pH 7.5) supplemented with collagenase D (0.1%, w/v; Roche), BSA (0.5%, w/v), and 9 mm Na2HPO4 at 18 °C for 14-16 h while gentle shaking. After incubation, the oocytes were carefully washed several times with ND96 buffer (96 mM NaCl, 2 mM KCl, 1.8 mM CaCl2, 1 mM MgCl2 buffered with 5 mM HEPES/NaOH, pH 7.5) supplemented with 100 mg l^−1 gentamycin). Defolliculated and healthy-looking stage V-VI oocytes were manually selected for RNA microinjection. The RNA was generated as following: The codon-optimized sequences of PfCRT variants were cloned into the pSP64T expression vector. After vector linearization using the restriction endonucleases BamHI or SalI (New England Biolabs), transcription was performed using the in vitro SP6 mMessage mMachine Kit (Ambion)[34]. The obtained RNA was kept at −80 °C and diluted with nuclease-free water to a concentration of 0.6 μg μl^−1. Precision-bore glass capillary tubes (3.5-inch glass capillaries; Drummond Scientific Co.) were pulled on a vertical puller (P-87 Flaming/Brown micropipette puller, Sutter Instrument Co.), graduated, and placed on a microinjector (Nanoject II Auto-Nanoliter Injector, Drummond Scientific Co.). 50 nl of nuclease-free water alone (control oocytes) or 50 nl of 0.6 μg μl^−1 RNA were injected under stereomicroscopic control. Injected oocytes were incubated for 46–72 h at 18 °C with twice-daily buffer changes before usage in experiments.
(§3) Drug uptake assays were performed as described previously[21],[22],[24],[34]. […] The direction of radio-labeled drug transport is here from the mostly acidic extracellular solution (pH 4.5 or 6.0, as indicated) into the oocyte cytosol (pH ∼ 7.2), which corresponds to the efflux of drug from the acidic digestive vacuole (pH 5.2) into the parasite cytoplasm (pH 7.2). The topology of PfCRT in the oolemma is such that both the N- and C-terminus face the extracellular milieu[3],[22]. In the parasite, the N- and C-terminus face the lumen of the digestive vacuole. CQ uptake kinetics were performed by incubating oocytes in ND96 buffer adjusted to a pH of 4.5, 5.0, 5.5, or 6.0 and supplemented with 50 nM [^3H]CQ and one of 7 different CQ concentrations (10 µM, 50 µM, 100 µM, 200 µM, 300 µM, 400 µM, 500 µM CQ). The reaction was stopped at the 60 min time point, which is in the linear uptake range[22],[34] (Supplementary Fig. 17). For determination of the amount of drug uptake for each oocyte, the reaction medium was removed and the oocytes were washed three times with 2 ml of ice-cold ND96 buffer. Each oocyte was individually transferred to a scintillation vial containing 5% sodium dodecyl sulfate (200 μl) for lysis. The radioactivity of each sample was measured using a liquid scintillation analyzer Tri-Carb 4910 TR (PerkinElmer). Oocytes that were injected with water instead of RNA were analyzed in parallel, representing the uptake of a drug by diffusion and/or endogenous permeation pathways. The resulting value represents the “background“ level of drug accumulation in oocytes (in-depth discussion in[22]). […]

PfCRT variant E207Y = test: CQ uptake assay, oocytes expressing E207Y; format: cell-based, Plasmodium falciparum
Description: as §1, §2, §3

[1] = D311A, 50 µM CQ, 1 h, mean ± SEM
[2] = E207Y, 50 µM CQ, 1 h, mean ± SEM

CCN(CC)CCCC(C)Nc1ccnc2cc(Cl)ccc12 (stereo not drawn) [CQ, chloroquine]
Activity at pH 4.5 (PfCRT variant D311A; [1]): 1.07 ± 0.25 pmol h-1 oocyte-1
Activity at pH 6.0 (PfCRT variant D311A; [1]): 3.22 ± 0.61 pmol h-1 oocyte-1
R-value (PfCRT variant D311A; D311A, CQ transport at pH 4.5 / pH 6.0): 0.33 ± 0.05
D311A transport activity pH 4.5 (PfCRT variant D311A; pH 4.5, single replicates, Fig 1d left): 0.58 pmol oocyte-1 h-1 and 1.64 pmol oocyte-1 h-1 and 0.99 pmol oocyte-1 h-1
D311A R-value (PfCRT variant D311A; pH 4.5 vs pH 6.0, Fig 1d left): 0.22 and 0.35 and 0.42
D311A transport activity pH 6.0 (PfCRT variant D311A; pH 6.0, single replicates, Fig 1d left): 2.63 pmol oocyte-1 h-1 and 4.69 pmol oocyte-1 h-1 and 2.33 pmol oocyte-1 h-1
Activity at pH 4.5 (PfCRT variant E207Y; [2]): 1.70 ± 0.21 pmol h-1 oocyte-1
Activity at pH 6.0 (PfCRT variant E207Y; [2]): 1.84 ± 0.21 pmol h-1 oocyte-1
R-value (PfCRT variant E207Y; E207Y, CQ transport at pH 4.5 / pH 6.0): 0.92 ± 0.06
E207Y transport activity pH 4.5 (PfCRT variant E207Y; pH 4.5, individual replicates, Fig 6b): 2.50 pmol oocyte-1 h-1 and 1.56 pmol oocyte-1 h-1 and 1.84 pmol oocyte-1 h-1 and 1.50 pmol oocyte-1 h-1 and 1.10 pmol oocyte-1 h-1
E207Y transport activity pH 6.0 (PfCRT variant E207Y; pH 6.0, individual replicates, Fig 6b): 2.64 pmol oocyte-1 h-1 and 1.70 pmol oocyte-1 h-1 and 1.99 pmol oocyte-1 h-1 and 1.61 pmol oocyte-1 h-1 and 1.24 pmol oocyte-1 h-1
E207Y R-value (PfCRT variant E207Y; ratio of activity pH 4.5 / pH 6.0): 0.95 and 0.92 and 0.93 and 0.89

Source: paper PMC10349806 (Nature Communications, 2023)
